Reference: publication PMC10628858, “Investigation of new ferrocenyl-artesunate derivatives as antiparasitics” (Dalton Transactions (Cambridge, England : 2003), 2023)

Tests used:
[1] = Aqueous stability (hydrolysis) by UV-Vis kinetic scan in 10% MeOH (aq); format: physicochemical
Description: Since biological systems are comprised of water, the behavior and stability of a drug in aqueous media is important. To determine the stability, each complex was dissolved in MeOH and then diluted to 10% MeOH (aq). The solutions were then monitored by UV-Vis spectroscopy using a kinetic scan in the range 190–1100 nm over 1 hour. […] Hydrolysis was also supported by RP-HPLC in which new peaks emerged corresponding to the starting ferrocene precursors, F2 and F4. […] […] The major difference being between C1/C2 and C3/C4 is the nature of the linkage either being an ester or an amide bond. It is expected that the hydrolysis of C2 would occur quicker due to the more labile nature of the ester bond.
UV-Vis studies were performed by dissolving each complex in methanol to a concentration of 1 mM. This was then diluted using distilled water in a 10% methanol/water mixture giving a final concentration of 100 μM. The complexes were then monitored using a kinetic scan between the range 190–1100 nm scanning each minute over the course of one hour. […]

[2] = Kinetic aqueous solubility, turbidimetric assay; format: physicochemical; conditions: turbidimetric assay, buffer not named
Description: The kinetic solubility of the complexes was determined by means of a turbidimetric assay. The complexes were first dissolved in dimethyl sulfoxide (DMSO) which was then serially diluted in either phosphate buffered saline (PBS) or 4-(2-hydroxyethyl)-1-piperazineethanesulfonic acid (HEPES). The extent of precipitation was then measured using the absorbance at 620 nm.
PBS was prepared by dissolving one PBS tablet in 200 mL of distilled water at 25 °C yielding a buffered solution containing 10 mM phosphate buffer, 3.0 mM KCl and 140 mM NaCl. The pH was then confirmed to be at 7.4 with a pH meter. A 0.025 M HEPES buffer was prepared by dissolving HEPES free acid 5.00 mmol in distilled water (±180 mL) and titrating the solution with 0.100 M NaOH until a pH 7 was reached, the volume was then made up to 200 mL using distilled water. A 10.0 mM stock of each drug was prepared in DMSO. […] 4 μL of the drugs was then pipetted into a 96-well plate loaded with 196 μL of either the desired buffer solution or DMSO. The test plates were then incubated at 37 °C for 4 hours following which the UV-Vis absorbance was measured at 620 nm and the absorbances corrected by subtracting the blank.

T. gondii (ΔKu80:mNeon) = assay: Immunofluorescence microscopy of intracellular T. gondii; format: cell-based, Toxoplasma gondii; conditions: 5 μM; for Parasite replication: 24 hours
Description: To determine morphological changes associated with drug treatment, immunofluorescence microscopy of T. gondii was performed after 24 hours or 48 hours of drug treatment at a concentration of 5 μM.
Since artemisinin has previously been reported to accumulate in the membrane of P. falciparum due to its affinity for neutral lipids,[46] it was hypothesized that the complex C3 may be doing the same thing in T. gondii. Then, upon activation of the endoperoxide bridge, this causes oxidative damage to the membranes, leading to disruption and release of parasite cytosolic contents.
Coverslips preseeded with HFF cells were infected with ΔKu80:mNeonGreen and incubated at 37 °C for 1 h to allow invasion. Following this, drug (5 μM) was added, and the plates placed back in the incubator for 24 hours. Cells were washed with 1 mL of sterile PBS, which was then again removed and 500 μL of 4% paraformaldehyde (PFA) was added and incubated at room temperature for 20 minutes. The PFA was removed, cell washed once with PBS. Cells were blocked and permeabilisated with incubation 500 μL of 2% bovine serum albubin (BSA), 0.5% Triton X-100 in PBD overnight at 4 °C. The coverslips were then removed and submerged in distilled water three times and mounted using Fluoromount with DAPI (Southern Biotech). The slides were then visualized using a DeltaVision fluorescent microscope (Applied Precision) and processed using SoftWoRx and FIJI software.

HEK293 cells = assay: MTT cell viability assay, HEK293; format: cell-based, human; conditions: for IC50: 48 h
Description: To assess the cytotoxicity of the four compounds a MTT cell viability assay using human embryonic kidney (HEK293) and human prostatic (PNT1A) cell lines were performed. […] The long chain compounds C1 and C3 were also shown to be non-cytotoxic towards the HEK293 cell line.
The immortalised human prostatic epithelial cell line, PNT1A (Sigma Aldrich, 95012614) was cultured in RPMI-1640 containing 10% foetal calf serum (Life Technologies, South Africa). The human embryonic kidney cell line HEK293 (ATCC) was cultured in DMEM (Life Technologies, South Africa). Both cell lines were cultured at 37 °C under 5% CO2 with 1% penicillin and streptomycin. Cancer cell cytotoxicity was evaluated using the MTT viability assay according to our previous method.[49] Briefly, cells were seeded at a density of 3 × 10^3 cells per well in 96-well plates and allowed to settle overnight. A 100 mM stock of C1/C2 and a 50 mM stock solution of C3/C4 in DMSO was prepared from which dilutions were made. The compound was then added to the cells in triplicate to obtain the indicated concentrations and 0.1% DMSO. Controls included cells treated with […] DMSO alone. After 48 h, 10 μL of 5 mg mL^−1 MTT (3-(4,5-dimethylthiazol-2-yl)-2,5-diphenyltetrazolium bromide) (Sigma-Aldrich) was added, and incubated with the cells for 4 h, followed by addition of 100 μL 10% SLS, 0.01 M HCL. The plates were read at 595 nm on a Multiscan FC plate reader (Thermo Scientific) and the data was fitted to a variable slope dose–response curve using Graphpad prism v6 to obtain the cytotoxicity IC50. The assay was repeated independently three times where inhibition was observed.

[3] = Stability on HPLC in an aqueous environment; format: physicochemical; conditions: aqueous environment (H2O/MeOH)
Description: Resonances belonging to the unsubstituted cyclopentadienyl ring of the ferrocene appeared as a singlet between 4.17 and 4.20 ppm and two triplets which correspond to the substituted ring.
Purity analysis was performed on an Agilent 1260 Infinity II high-performance liquid chromatography (HPLC) system with a DAD detector. A Kinetex C18 100 Å column was used with dimensions, 150 × 4.6 mm with a 5 μm […]. A mobile phase of (A) H2O (B) MeOH was used at gradients of t = 0 min 10% B, t = 15 min 80% B, t = 35 min 80% B, t = 37 min 10% B and t = 45 min 10% B over a 45 min period. The flow rate was set to 1 mL min^−1, and the detection wavelength was set at 260 nm with the reference wavelength at 360 nm. 50 μL sample was injected, with needle washes of MeOH between injections. The peaks were manually integrated to gain the percentage area. Samples were dissolved in 10% MeOH/90% H2O at 100 μM concentrations.

[4] = system: P. falciparum Dd2 (chloroquine resistant); set-up: method as in doi:10.1016/j.jorganchem.2023.122633; conditions: chloroquine resistant strain; cited from earlier work
[5] = system: P. falciparum 3D7 (chloroquine sensitive); set-up: method as in doi:10.1016/j.jorganchem.2023.122633; conditions: chloroquine sensitive strain; cited from earlier work
[6] = no curve could be fitted within one hour
[7] = change in absorbance at 254 nm over one hour, ExpDec1 fit

Row | Structure (SMILES) | Half-life [1, 6] [h] | Solubility range [2] [µg/mL] | Parasite replication (T. gondii (ΔKu80:mNeon)) | Cytotoxicity towards HEK293 (HEK293 cells) | IC50 (HEK293 cells) [µM] | Aqueous solubility [2] [µM] | Parasite morphology (T. gondii (ΔKu80:mNeon); 24 hours or 48 hours) | Stability on HPLC [3] | Activity against P. falciparum Dd2 [4] [nM] | Half-life [1, 7] [h] | Rate constant (hydrolysis) [1, 7] [min⁻¹] | Activity against P. falciparum 3D7 [5] [nM]
1 | CC1CCC2C(C)C(OC(=O)CCC(=O)OCCNC(=O)[c-]3cccc3)OC3OC4(C)CCC1C32OO4.[Fe+2].c1cc[cH-]c1 (stereo not drawn) [Compound C1] | >1 | 25 to 51 | completely block replication | non-cytotoxic | > 100 |  |  |  |  |  |  | 
2 | CC1CCC2C(C)C(OC(=O)CCC(=O)NCCNC(=O)[c-]3cccc3)OC3OC4(C)CCC1C32OO4.[Fe+2].c1cc[cH-]c1 (stereo not drawn) [Compound C3] | >1 | 3 to 6 | completely block replication | non-cytotoxic | > 50 | 5 to 10 | novel morphology | high degree of instability |  |  |  | 
3 | CC1CCC2C(C)C(OC(=O)CCC(=O)NC[c-]3cccc3)OC3OC4(C)CCC1C32OO4.[Fe+2].c1cc[cH-]c1 (stereo not drawn) [Compound C4] |  | 3 to 6 |  |  | 36 ± 2.7 | 5 to 10 |  | high degree of instability | 3.0 | 0.155 ± 0.0035 | 0.074 ± 0.0016 | 6.1
